Data as given in patent publication US11859252B2, “Diagnostic and therapeutic methods for cancer” (Genentech, Inc., priority 2017, dated 2024).
Entries after “also recorded” stand apart in the source; their conditions may differ.

Columns and labels:
Assay type in all cases: cell-based
pMEK, pERK, pRSK, pAKT = assay: Immunoblot of pathway markers after compound treatment; conditions: for induction of pMEK by PI3K inhibition: A549 and HCT116 cells, FIGS. 7B-7D
Protocol: Cells lysed in lysis buffer (0.5% NP40, 20 mM Tris, pH 7.5, 137 mM NaCl, 10% glycerol, 1 mM EDTA) plus protease inhibitor mixture-complete mini (Roche Applied Science, 11836170001) and phosphatase inhibitor mix (Thermo, 78426). Lysates were centrifuged at 15,000 rpm for 10 minutes and the protein concentration determined using BCA (Thermo, 23227). Equal amounts of protein were subjected to SDS-PAGE NuPAGE 4-12% Bis-Tris Gel (Novex, WG-1403) and transferred to nitrocellulose membrane (BioRad, 170-4159). After blocking in blocking buffer (Li-Cor, 927-40000), membranes were incubated with the indicated primary antibodies and analyzed either by the addition of secondary antibodies IRDye 680LT Goat anti-Mouse IgG (H+L) (Li-Cor, 926-68050) or IRDye 800CW goat anti-Rabbit IgG (H+L) (Li-Cor, 926-32211). The membranes were visualized on the LiCor Odyssey CLx Scanner.

A549 cells = assay: 12×12 matrix titration, Bliss excess, […]-GLO; conditions: 3 days
Protocol: For combination synergy studies, cells were plated in 384-well plates (Corning) and treated with varying concentrations of compound, either alone or in combination for 72 hours. Cell viability was determined using CellTiter-Glo Luminescent Cell Viability Assay (Promega, G7573). Synergistic effects were determined using the Bliss independence analysis methods (Greco et al. Pharmacol. Rev. 47: 331-385, 1995; Chou and Talalay. Adv. Enzyme Regul. 22:27-55, 1984; Chou. Cancer Res. 70: 440-446, 2010; Bliss. Ann. Appl. Biol. 25: 31, 1939).

[1] = system: A549 KRAS-mutant lung cancer cell line; assay: Tool compound combination screen with AZ-628; conditions: 1 μM AZ-628 versus DMSO, FIG. 1D-1E
Protocol: A compound library comprising 480 compounds arrayed in 9-point dose response was screened in the absence or presence of a fixed dose of either AZ-628 or DMSO in A549 cells. A549 cells were seeded into 384 well plates, and compound was added 24 h later. Cell viability was determined 120 h post-compound addition (CellTiter Glo). Curves were fitted, and both IC50 and mean viability metrics were calculated. The IC50 is the dose at which inhibition is 50% relative to untreated wells. The mean viability is the average of the fitted viabilities at each tested dose. Mean viability is equivalent to the area under the log-dose/viability curve divided by the total number of tested doses. All data were fitted using Genedata Screener (GDS) software. The combination metric was the difference in mean viability between the AZ-628 treated arm and the DMSO treated arm for each compound.

BRAF-V600E cell lines = assay: 3-day […]-GLO viability assay of RAF inhibitors, BRAF-V600E lines; conditions: single agent; BRAF-V600E mutant cell lines; FIG. 1A
Protocol: (§1) Seeding densities were optimized for each cell line to obtain 70-80% confluence after 4 days. The cells were plated into 384-well plates (Griener, 781091) and then treated with compound the following day in a final DMSO concentration of 0.1%. The relative numbers of viable cells were measured by luminescence using CellTiter-Glo (Promega, G7573). Viability curves were generated using a four-parameter fit in GraphPad Prism 6.

pMEK = assay: Phospho (Ser 217/221)/Total MEK1/2 assay; conditions: KRAS mutant; ratio of P-MEK and total MEK; FIG. 1B
Protocol: Cells were plated at a density of 20,000 cells per 96-well and treated with compound the following day for two hours in a final concentration of 0.2% DMSO. After two hours, the cells were lysed according to manufacturer's protocol (Meso Scale Discovery, K15129D), and the lysates were added to BSA-blocked plates for overnight capture at 4° C. The following day the assay plates were washed three times with TBST and the detection antibody was added for one hour at RT. The plates were then washed three times with TBST. 1× read buffer was added to the plate and immediately read on the Meso Scale Discovery SECTOR Imager 6000. Curves were generated using Graph Pad Prism 6.

KRAS mutant cell lines = assay: 3-day […]-GLO viability assay of RAF inhibitors, KRAS mutant lines; conditions: single agent, FIG. 1A
Protocol: as §1

RAS-GTP = assay: Ras activity assay (RAF1-RBD pull-down); conditions: A549, 24 hours, RAF1-RBD pull-down, FIG. 7E
Protocol: Levels of active GTP-loaded Ras were determined by GST-Raf-RBD pull-down assay (Thermo Scientific, 16117). In brief, GST-Raf-RBD fusion proteins were incubated with glutathione beads, and cells were collected in lysis buffer as recommended by the manufacturer. The cell lysates were incubated with the GST-Raf-RBD immobilized beads for 1.5 hours at 4° C. Bound proteins were eluted with SDS sample buffer and analyzed by Western blot.

SMILES: CNS(=O)(=O)Nc1nccc(Cc2c(C)c3ccc(Oc4ncccn4)cc3oc2=O)c1F [CH-6766]
- induction of pMEK (pMEK, pERK, pRSK, pAKT; A549 cells, 24 hours at 1 μM, FIG. 1F): do not induce pMEK
- synergy with AZ-628 (Bliss excess) (A549 cells; full-dose Bliss matrix, FIG. 1G): less synergistic with AZ-628

SMILES: O=C(NOC[C@H](O)CO)c1ccc(F)c(F)c1Nc1ccc(I)cc1F [PD901]
- hit ranking / mean viability difference with AZ-628 [1]: scored highest among the compounds tested

SMILES: O=C(c1c(F)ccc(NS(=O)(=O)N2CC[C@@H](F)C2)c1F)c1c[nH]c2ncc(-c3cnc(C4CC4)nc3)cc12 [PLX-8394]
- activity in cell viability assay (BRAF-V600E cell lines): showed activity in BRAF-V600E mutant cell lines
- synergy with cobimetinib (Bliss excess) (A549 cells; FIG. 2A): did not synergize with MEK inhibitors in KRAS mutant cell lines
- paradoxical activation of downstream pMEK (pMEK): do not induce paradoxical activation
- activity in cell viability assay (KRAS mutant cell lines): but not in KRAS mutant cell lines

SMILES: CC(C)(C)c1nc(-c2cccc(NS(=O)(=O)c3c(F)cccc3F)c2F)c(-c2ccnc(N)n2)s1 [dabrafenib]
- activity in cell viability assay (BRAF-V600E cell lines): showed activity in BRAF-V600E mutant cell lines
- paradoxical activation of downstream pMEK (pMEK): led to paradoxical activation of downstream pMEK in KRAS mutant tumors
- activity in cell viability assay (KRAS mutant cell lines): but not in KRAS mutant cell lines

SMILES: CS(=O)(=O)N1CCN(Cc2cc3nc(-c4cccc5[nH]ncc45)nc(N4CCOCC4)c3s2)CC1 [pictilisib]
- pERK and pRSK levels (pMEK, pERK, pRSK, pAKT; A549, 24 hours, dose-dependent, FIG. 7D): increased pERK and pRSK levels
- pAKT inhibition (pMEK, pERK, pRSK, pAKT; A549, pictilisib alone, 24 hours, FIG. 7G): robustly inhibit pAKT
- induction of pMEK by PI3K inhibition (pMEK, pERK, pRSK, pAKT; 24 hours): doing so at lower concentrations; also recorded: dose-dependent induction of pMEK
- hit ranking / mean viability difference with AZ-628 [1]: notable hits; also recorded: among the top hits of the screen
- RAS-GTP levels (RAS-GTP): dose-dependent induction of RAS-GTP levels
- RAS-GTP levels (RAS-GTP; listed as Pictilisib): increase levels of RAS-GTP (albeit at higher concentrations) similar to that induced by cobimetinib

SMILES: O=C(NC[C@H](O)CO)c1ccncc1Nc1ccc(I)cc1F [pimasertib]
- hit ranking / mean viability difference with AZ-628 [1]: scored highest among the compounds tested

SMILES: COc1cc(F)c(F)c(Nc2ccc(I)cc2F)c1NS(=O)(=O)C1(C[C@H](O)CO)CC1 [refametinib]
- hit ranking / mean viability difference with AZ-628 [1]: scored highest among the compounds tested

SMILES: Cc1nc(-c2cn3c(n2)-c2ccc(-c4cnn(C(C)(C)C(N)=O)c4)cc2OCC3)n(C(C)C)n1 [taselisib]
- induction of pMEK by PI3K inhibition (pMEK, pERK, pRSK, pAKT; 24 hours): doing so at lower concentrations
- hit ranking / mean viability difference with AZ-628 [1]: notable hits
